The values below come from patent US20220127570A1, “IMMUNE EFFECTOR CELL AND USE THEREOF” (CAFA THERAPEUTICS LIMITED, priority 2018, published 2022).

The subject of series [1] is PLC/PRF/5 subcutaneous xenograft. The experiment in a line: PLC/PRF/5 subcutaneous xenograft model, CAR T in combination with sorafenib. The class given is in vivo, NPG mice. The method, then:
2) Inoculation of subcutaneous xenograft: PLC/PRF/5 cells in the logarithmic growth phase and in good growth condition were collected by Trypsin digestion and washed once with normal saline. The cell density was adjusted to 1.5×10^7/mL and 200 μL of cell suspension was injected into the subcutaneous part of the right abdomen of NPG mice using a syringe, that is, each mouse was inoculated with 3×10^6 tumor cells, and the inoculation day was the 0th day.
3) Injection of CAR T: On D14 days after subcutaneous inoculation of tumor cells, the average tumor volume was about 260 mm^3. CAR T cells were injected, and the injection dose: 2.0×10^6/animal. On D1-D14 days after subcutaneous inoculation of tumor cells, sorafenib was administered by gavage at a dose of 75 mg/kg, and the gavage volume was 200 ul, once a day, for 14 consecutive days, and the solvent was used as a negative control.

The conditions of series [2]: cited from earlier work.

In the case of `CNC(=O)c1cc(Oc2ccc(NC(=O)Nc3ccc(Cl)c(C(F)(F)F)c3)cc2)ccn1` [Sorafenib], in series [1] (D18 after injection of CAR T, compared with UTD control group, CAR T 2.0×10^6/animal, sorafenib 75 mg/kg gavage once a day for 14 days), the tumor inhibiting rate is 27.38%. Besides, the “body weight of mice compared with UTD” value in series [1] (at the beginning of the treatment) is “decreased”. For the same molecule, the “body weight of mice” value in series [1] (at the end of the treatment) is “restored”. The “solubility in polyvinylglycerol 400 (PEG400)” value in series [2] (PEG400) was “soluble”. The solubility in ethanol result in series [2] (ethanol) is “slightly soluble”. Further, in series [2] (water), the solubility in water entry is on record as “poorly soluble”.
